From article PMC3214022, “Plasmodium falciparum Parasites Are Killed by a Transition State Analogue of Purine Nucleoside Phosphorylase in a Primate Animal Model” (PLoS ONE, 2011)

Test: Weights, CBC, blood chemistry and signs of toxicity, Table S1 sheet PD-2 (infected Aotus, twice a day for seven days)
Type: in vivo, Aotus lemurinus lemurinus
Conditions: oral 10 mg/kg twice a day/7 days
Protocol: Laboratory bred Aotus lemurinus lemurinus monkeys (0.75–0.89 kg) were maintained as described. […] Blood samples were collected before the treatment started (t = 0), 0.05 h, 0.5 h, 1 h, 2 h, 6 h, 24 h, 48 h, and 6, 12 and 18 days after the first dose from each monkey and processed as described below. Pharmacokinetic parameters were calculated using PKSolver. For efficacy studies, Aotus monkeys were inoculated intravenously with 5×10^6 parasites of the FVO strain of P. falciparum in an approved treatment protocol. […] Parasitaemia was determined by Giemsa-stained thick blood smears prepared daily from the marginal ear vein [41]. Blood samples were collected from each monkey and transferred to tubes containing lithium heparin, centrifuged and both plasma and blood cells were frozen at −80 °C until analysis. Animals received a physical examination and blood chemistry profiles were monitored after treatment as described previously. Any monkey not responding appropriately to treatment was cured of its infection with mefloquine (40 mg kg^−1). […] The day of clearance is defined as the first of three consecutive days in which the thick blood films are parasite negative. The day of recrudescence is the first of three consecutive days of positive thick blood films after a period of clearance. Suppression is defined as a transient decrease in the parasite count post-treatment without clearance.

## Nc1nc2c(CN3CC(O)C(CO)C3)c[nH]c2c(=O)[nH]1 (stereo not drawn) [BCX4945, 4′-deaza-1′-aza-2′-deoxy-1′-(9-methylene)-Immucillin-G]
26027 Male (ITM3), day 15
  WEIGHT: 890 g
26027 Male (ITM3), day 18
  Blood Urea Nitrogen: 20.6 mg/dL
  Creatine: 0.5 mg/dL
  Erythrocytes: 4.74e+06 µL⁻¹
  Glutamate Pyruvate Transaminase: 27.5 U/L
  Granulocytes (%): 37%
  Granulocytes (x 103/ul): 3 x 103/ul
  Hematocrit: 39.9%
  Hemoglobin: 14.1 g/dL
  Leucocytes: 8100 µL⁻¹
  Lymphocytes (%): 58.1%
  Lymphocytes (x 103/ul): 4.7 x 103/ul
  Mean Corpuscular Hemoglobin: 29.9 pg
  Mean Corpuscular Volume: 84.3 fL
  Mean Hemoglobin Content: 35.4 g/dL
  Mean Platelet Volume: 11.7 fL
  Monocytes (%): 4.9%
  Monocytes (x 103/ul): 0.4 x 103/ul
  Platelets: 208000 µL⁻¹
  Red Cell Distribution Width: 17.7%
  Reticulocytes: 1.9%
  WEIGHT: 900 g
26027 Male (ITM3), day 25
  Erythrocytes: 4.04e+06 µL⁻¹
  Granulocytes (%): 17.2%
  Granulocytes (x 103/ul): 2.5 x 103/ul
  Hematocrit: 35.7%
  Hemoglobin: 12.2 g/dL
  Leucocytes: 14500 µL⁻¹
  Lymphocytes (%): 74.8%
  Lymphocytes (x 103/ul): 10.8 x 103/ul
  Mean Corpuscular Hemoglobin: 30.1 pg
  Mean Corpuscular Volume: 88.4 fL
  Mean Hemoglobin Content: 34 g/dL
  Mean Platelet Volume: 13.3 fL
  Monocytes (%): 8%
  Monocytes (x 103/ul): 1.2 x 103/ul
  Platelets: 118000 µL⁻¹
  Red Cell Distribution Width: 17.3%
  Reticulocytes: 3.1%
  WEIGHT: 888 g
26027 Male (ITM3), day -10
  Blood Urea Nitrogen: 18.35 mg/dL
  Creatine: 0.5 mg/dL
  Erythrocytes: 5.73e+06 µL⁻¹
  Glutamate Pyruvate Transaminase: 23.9 U/L
  Granulocytes (%): 15.9%
  Granulocytes (x 103/ul): 1.6 x 103/ul
  Hematocrit: 46.1%
  Hemoglobin: 17.0 g/dL
  Leucocytes: 10200 µL⁻¹
  Lymphocytes (%): 78%
  Lymphocytes (x 103/ul): 8 x 103/ul
  Mean Corpuscular Hemoglobin: 29.6 pg
  Mean Corpuscular Volume: 80.5 fL
  Mean Hemoglobin Content: 36.8 g/dL
  Mean Platelet Volume: 11.9 fL
  Monocytes (%): 6.1%
  Monocytes (x 103/ul): 0.6 x 103/ul
  Platelets: 253000 µL⁻¹
  Red Cell Distribution Width: 11.7%
  Reticulocytes: 1.1%
  WEIGHT: 895 g
26047 Female (ITM1), day 8
  Blood Urea Nitrogen: 18.65 mg/dL
  Creatine: 0.539 mg/dL
  Erythrocytes: 4.63e+06 µL⁻¹
  Glutamate Pyruvate Transaminase: 13.2 U/L
  Granulocytes (%): 10%
  Granulocytes (x 103/ul): 1.3 x 103/ul
  Hematocrit: 36.7%
  Hemoglobin: 13.2 g/dL
  Leucocytes: 12900 µL⁻¹
  Lymphocytes (%): 74.5%
  Lymphocytes (x 103/ul): 9.6 x 103/ul
  Mean Corpuscular Hemoglobin: 28.5 pg
  Mean Corpuscular Volume: 79.3 fL
  Mean Hemoglobin Content: 35.9 g/dL
  Mean Platelet Volume: 9.7 fL
  Monocytes (%): 15.5%
  Monocytes (x 103/ul): 2 x 103/ul
  Platelets: 297000 µL⁻¹
  Red Cell Distribution Width: 12.5%
  Reticulocytes: 2.8%
  WEIGHT: 814 g
26047 Female (ITM1), day 12
  Blood Urea Nitrogen: 10.55 mg/dL
  Creatine: 0.5 mg/dL
  Erythrocytes: 4.11e+06 µL⁻¹
  Glutamate Pyruvate Transaminase: 27.3 U/L
  Granulocytes (%): 21.3%
  Granulocytes (x 103/ul): 3.6 x 103/ul
  Hematocrit: 32.7%
  Hemoglobin: 11.6 g/dL
  Leucocytes: 16800 µL⁻¹
  Lymphocytes (%): 68.4%
  Lymphocytes (x 103/ul): 11.5 x 103/ul
  Mean Corpuscular Hemoglobin: 28.3 pg
  Mean Corpuscular Volume: 79.5 fL
  Mean Hemoglobin Content: 35.5 g/dL
  Mean Platelet Volume: 9.9 fL
  Monocytes (%): 10.3%
  Monocytes (x 103/ul): 1.7 x 103/ul
  Platelets: 338000 µL⁻¹
  Red Cell Distribution Width: 13.6%
  Reticulocytes: 2.2%
  WEIGHT: 845 g
26047 Female (ITM1), day 15
  Blood Urea Nitrogen: 11.4 mg/dL
  Creatine: 0.638 mg/dL
  Erythrocytes: 4.51e+06 µL⁻¹
  Glutamate Pyruvate Transaminase: 21.4 U/L
  Granulocytes (%): 7.5%
  Granulocytes (x 103/ul): 1 x 103/ul
  Hematocrit: 36.3%
  Hemoglobin: 12.9 g/dL
  Leucocytes: 13100 µL⁻¹
  Lymphocytes (%): 81.3%
  Lymphocytes (x 103/ul): 10.7 x 103/ul
  Mean Corpuscular Hemoglobin: 28.7 pg
  Mean Corpuscular Volume: 80.5 fL
  Mean Hemoglobin Content: 35.6 g/dL
  Mean Platelet Volume: 10.4 fL
  Monocytes (x 103/ul): 1.5 x 103/ul
  Platelets: 164000 µL⁻¹
  Red Cell Distribution Width: 17.5%
  Reticulocytes: 4.2%
  WEIGHT: 839 g
26047 Female (ITM1), day 18
  Blood Urea Nitrogen: 16.4 mg/dL
  Creatine: 0.5 mg/dL
  Erythrocytes: 4.39e+06 µL⁻¹
  Glutamate Pyruvate Transaminase: 15.3 U/L
  Granulocytes (%): 7.8%
  Granulocytes (x 103/ul): 1.7 x 103/ul
  Hematocrit: 35.7%
  Hemoglobin: 12.3 g/dL
  Leucocytes: 21900 µL⁻¹
  Lymphocytes (%): 82.9%
  Lymphocytes (x 103/ul): 18.2 x 103/ul
  Mean Corpuscular Hemoglobin: 28 pg
  Mean Corpuscular Volume: 81.2 fL
  Mean Hemoglobin Content: 34.4 g/dL
  Mean Platelet Volume: 12.4 fL
  Monocytes (%): 9.3%
  Monocytes (x 103/ul): 2 x 103/ul
  Platelets: 115000 µL⁻¹
  Red Cell Distribution Width: 16.7%
  Reticulocytes: 3.1%
  WEIGHT: 860 g
26047 Female (ITM1), day 25
  Erythrocytes: 4.98e+06 µL⁻¹
  Granulocytes (%): 4.7%
  Granulocytes (x 103/ul): 0.8 x 103/ul
  Hematocrit: 40.8%
  Hemoglobin: 13.7 g/dL
  Leucocytes: 16900 µL⁻¹
  Lymphocytes (%): 90%
  Lymphocytes (x 103/ul): 15.2 x 103/ul
  Mean Corpuscular Hemoglobin: 27.4 pg
  Mean Corpuscular Volume: 81.8 fL
  Mean Hemoglobin Content: 33.6 g/dL
  Mean Platelet Volume: 11.8 fL
  Monocytes (%): 5.3%
  Monocytes (x 103/ul): 0.9 x 103/ul
  Platelets: 158000 µL⁻¹
  Red Cell Distribution Width: 17.4%
  Reticulocytes: 1.9%
  WEIGHT: 843 g
26047 Female (ITM1), day -10
  Blood Urea Nitrogen: 15.35 mg/dL
  Creatine: 0.531 mg/dL
  Erythrocytes: 6.12e+06 µL⁻¹
  Glutamate Pyruvate Transaminase: 20.1 U/L
  Granulocytes (%): 6.5%
  Granulocytes (x 103/ul): 1.5 x 103/ul
  Hematocrit: 47.5%
  Hemoglobin: 17.3 g/dL
  Leucocytes: 23800 µL⁻¹
  Lymphocytes (%): 87.8%
  Lymphocytes (x 103/ul): 20.9 x 103/ul
  Mean Corpuscular Hemoglobin: 28.3 pg
  Mean Corpuscular Volume: 77.6 fL
  Mean Hemoglobin Content: 36.4 g/dL
  Mean Platelet Volume: 11 fL
  Monocytes (%): 5.7%
  Monocytes (x 103/ul): 1.4 x 103/ul
  Platelets: 266000 µL⁻¹
  Red Cell Distribution Width: 11%
  Reticulocytes: 2.1%
  WEIGHT: 824 g
